The values that follow come from ChEMBL document CHEMBL5727793, “Covalent inhibitors of PAD4” (2020).

pIC50: −log10 of the molar value.

One may read the pIC50 as the negative decadic logarithm of the IC50, by convention in mol/L.

This test is described as follows: RapidFire Mass Spectrometry (RFMS) Activity Assay: Compounds were solubilized in 100% DMSO to achieve 100 mM final compound concentration. Compound stock solutions were stored at RT. A series of dilutions were prepared in DMSO and mixed 8 times with 20 μL mixing volume. […] After 5 mins, 10 μL of 100 μM of substrate in buffer (100 mM Tris-HCl pH 7.6, 2 mM DTT, 2 mM CaCl2) was added and the reaction incubated for 60 mins at 37° C. The enzymatic reaction was quenched by addition of 40 μl of 5% TCA in ACN (1.7% TCA final concentration) stop solution. Arginine containing substrate and citrulline containing product (+1 Da mass shift) were subjected to solid phase extraction on Agilent RapidFire (RF) 300 system and detected on a coupled, triple quadrupole Agilent 6460 QQQ mass spectrometry (MS) device under application of multiple reaction monitoring (MRM) for quantitation.

For `CN(C)C/C=C/C(=O)N[C@H]1CCN(C(=O)c2ccc3c(c2)nc(-c2cc4cccnc4n2CC2CC2)n3C)C[C@H]1N`, the pIC50 is less than 5.00.

As to `CN(C)C/C=C/C(=O)N[C@@H]1C[C@H](N)CN(C(=O)c2ccc3c(c2)nc(-c2cc4cccnc4n2CC2CC2)n3C)C1`, the pIC50 is less than 5.00.
